Results on one molecule are retold here after US20040152659A1, “Method for the treatment of parkinson's disease comprising administering an A1A2a receptor dual antagonist” (Fujisawa Pharmaceutical Co. Ltd., priority 1999, published 2004).

A word on the inhibition: it is the relative decrease from the control value, in per cent.

For assay [1], the target named is T1, human recombinant A1 receptors (Homo sapiens, UniProt P30542).
T1 construct: expressed in transfected cells; host or cells: CHO cells
T1 sequence (P30542 1-326): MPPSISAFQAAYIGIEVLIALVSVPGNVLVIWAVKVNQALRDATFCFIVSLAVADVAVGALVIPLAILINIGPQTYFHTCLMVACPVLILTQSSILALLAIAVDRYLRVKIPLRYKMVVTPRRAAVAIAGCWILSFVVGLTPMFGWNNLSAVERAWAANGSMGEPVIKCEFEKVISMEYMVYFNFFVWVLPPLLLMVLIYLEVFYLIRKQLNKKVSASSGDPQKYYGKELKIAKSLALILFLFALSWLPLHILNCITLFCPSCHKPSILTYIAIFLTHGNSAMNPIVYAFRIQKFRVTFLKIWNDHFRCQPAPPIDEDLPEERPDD
Kind of assay: Estimation of Adenosine A1-receptor antagonizing activity ([3H]-DPCPX binding, CHO cell membrane fractions). The source says:
(§1) The existence and intensity of “adenosine A1-receptor antagonizing activity” and/or “adenosine A2a-receptor antagonizing activity” can be ascertained and assessed typically by the following test method. The intensity of adenosine A1-receptor antagonizing action and of adenosine A2a-receptor antagonizing action as referred to in the appended claims also means the value found by the method described below.
(§2) “Estimation of Adenosine A1 and A2a-receptor antagonizing activity”
(§3) Membrane fractions prepared from the CHO cells which transfected stably with human recombinant A1 or A2a receptors were incubated for 1 hr at 25° C. with test compounds, ADA, 50 mM Tris buffer and [3H]-DPCPX (final 4 nM) or [3H]-CGS21680 (final 15 nM), respectively. Reaction mixtures were filtrated with 96-well harvestor to separate free ligands from bound fraction using GF/C filter. Radioactivity of the dried filter was counted, and specific binding of each labelled rigands was calculated.

Assay [2] deals with T2, human recombinant A2a receptors (Homo sapiens, UniProt P29274).
T2 construct: expressed in transfected cells; host or cells: CHO cells
Kind of assay: Estimation of Adenosine A2a-receptor antagonizing activity ([3H]-CGS21680 binding, CHO cell membrane fractions). As to conditions: at a concentration of 1.0×10^−6 M; [3H]-CGS21680 15 nM; read-out: inhibition rate for Adenosine A2a-receptor.
Excerpt: as §1, §2, §3

In another assay the test system is Mice. Kind of assay: Test 1 Anticataleptic action (haloperidol-induced catalepsy). Type of assay: in vivo. As to conditions: 1 mg/kg oral, 30 min before haloperidol 0.32 mg/kg i.p., observed 30 min later, control 100. As to the method: Test 1 Anticataleptic Action
Mice were orally dosed with the test compound as a suspention in 0.5% of methyl cellulose and, 30 minutes later, intraperitoneally dosed with 0.32 mg/kg of haloperidol.

The subject of another assay is male SD rats. The assay is described as follows: Test 2 Anxiolytic action (social interaction test). The format is in vivo. The note with it: 0.32 mg/kg oral 1 h before test, 15 min observation, control 51.3 ± 6.0. As to the method: Two male SD rats acclimated for 1 week and handled once were used in sets. One hour before beginning of the test, both rats in each set were orally dosed with the same amount of the test compound or the vehicle. Immediately thereafter, both rats were placed in a new environment where territories were to be established as yet and their behaviors were monitored and recorded over 15 minutes. After the test, the records were analyzed and evaluated in terms of the total duration of social interaction (social interaction time) (observation items: sniffing, following, grooming, kicking, boxing, biting, wrestling, crawling under or over the partner).

The test system of the next assay is Male Wistar rats. Kind of assay: Test 3 Impaired-memory ameliorating action (scopolamine-impaired retention trial). The format is in vivo. As to conditions: scopolamine 1 mg/kg i.p. + test compound 1 mg/kg i.p. immediately after acquisition trial, scopolamine + control 80.2 ± 34.9, intact 300 ± 0. As to the method:
Test 3 Impaired-Memory Ameliorating Action
Male Wistar rats were serially subjected to an acclimation trial, an acquisition trial 1 hour after the acclimation trial, and a retention trial 24 hours after the acquisition trial. Scopolamine 1 mg/kg was intraperitoneally administered 30 minutes before the acquisition trial. The test compound was intraperitoneally administered immediately after the acquisition trial.

A value given as a limit tells only on which side of the number the result lay.

T2 sequence (P29274 whole entry): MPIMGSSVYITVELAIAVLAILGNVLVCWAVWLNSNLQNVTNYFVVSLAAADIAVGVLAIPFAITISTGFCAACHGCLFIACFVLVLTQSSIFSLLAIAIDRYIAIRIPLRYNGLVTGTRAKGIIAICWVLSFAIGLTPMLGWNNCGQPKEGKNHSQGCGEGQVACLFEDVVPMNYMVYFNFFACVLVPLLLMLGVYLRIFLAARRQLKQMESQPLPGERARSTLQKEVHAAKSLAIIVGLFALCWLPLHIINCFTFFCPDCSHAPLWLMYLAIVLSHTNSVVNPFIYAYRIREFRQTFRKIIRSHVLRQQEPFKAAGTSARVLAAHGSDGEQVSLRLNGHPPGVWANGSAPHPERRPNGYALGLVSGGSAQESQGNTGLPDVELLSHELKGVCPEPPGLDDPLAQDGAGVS

`O=c1ccc(-c2c(-c3ccccc3)nn3ccccc23)nn1Cc1nccs1` [(A), 3-[2-(Thiazol-2-ylmethyl)-3-oxo-2,3-dihydropyridazin-6-yl]-2-phenylpyrazolo[1,5-a]pyridine]: the “affinity for the adenosine A1-receptor relative to affinity for the adenosine A2a receptor” value in assay [1] (A1 affinity as a multiple of A2a affinity) was 36 times. The inhibition at 1 µM in assay [1] (at a concentration of 1.0×10^−6 M, [3H]-DPCPX 4 nM, read-out: inhibition rate for Adenosine A1-receptor) was no less than 80%; in assay [2], no less than 80%. The molecule further registered an Incidence of catalepsy with Mice of 20%. Also, the Social interaction time in the assay with male SD rats was determined as 90.5 ± 12.5 s. In the assay on Male Wistar rats, the “Reaction latency in retention trial” value came out at 215.6 ± 35.0 s.
